≈ marks a conversion by molar mass, not a printed value. Like-named read-outs stand apart in the source and are kept apart here.
Key:
[1] = test system: carrageenan-induced paw edema in rats; assay: Carrageenan-induced paw edema (anti-inflammatory activity); assay type: in vivo; conditions: Wistar rats, oral, mean ± SEM
Procedure: All the animals were obtained from the animal house of the Department of Pharmacology, […] College of Pharmacy, Mandsaur and its animal facility is approved by […]. No. 918/ac/05/CPCSEA). The experimental protocols for the same have been approved by Institutional Animal Ethics Committee. The analgesic activity was carried out on Swiss albino mice by the Siegmund et al. method; anti-inflammatory activity of the compounds was carried out on Wistar rats by the Winter et al. method. The anti-inflammatory activity was evaluated using carrageenan-induced paw edema on rat method. To evaluate the anti-inflammatory activity of the conjugates 4 groups (n = 6) of Wistar rats (150-200 g) were examined. […] A stock solution of 0.2, 0.52 and 2.14 mg ml^-1 was prepared as a homogeneous suspension in aqueous solution of sodium CMC (0.5% w/v) and each animal received 2.0- 2.2 ml of the respective drugs orally. Thirty minutes after administration of drugs, each rat received a subplanter injection of 0.1 ml of 1% carrageenan solution in its left hind paw. The swelling volume of the paw was measured before (time 0) and at 0.5, 1, 2, 3, 4, 24 h after the carrageenan injection. The measurement of the hind paw volume was carried out using an Ugo Basile Plethysmometer before any treatment (Vo) and in any interval (Vt) after the administration of the drugs. The percentage increase in the paw volume was calculated from the normal paw volume. The percentage of swelling inhibition was calculated using: Inhibition (%) = (Vt - Vo)control - (Vt - Vo)treated/(Vt - Vo)×100 (Vt and Vo relates to the average volume in the hind paw of the rats (n = 6) before any treatment and after anti-inflammatory agent treatment, respectively.

[2] = cited from earlier work
[3] = test system: acetic acid induced writhing in mice; assay: Writhing induced by acetic acid (analgesic activity); assay type: in vivo, Swiss albino mice; conditions: oral, 3 h prior to acetic acid, Ibuprofen 20 mg/kg or molecular equivalent dose of conjugate
Procedure: Analgesic activity was carried out by using acetic acid induced writhing method in Swiss albino mice (25–30 g) of either sex. A 1% v/v solution of acetic acid was used to induce writhing. Test compounds were administered orally 3 h prior to acetic acid injection. Number of writhing for 10 min in control and test compounds were counted and compared. […] Acetic acid was administered intraperitoneally 1 ml/100 g body weight of the animal. Analgesic activity was measured as percent decrease in writhing in comparison to control. The percent Inhibition was calculated using the following equation: % Inhibition = 100 − number of writhings in test/number of writhings in control×100
Analgesic activity was carried out by using acetic acid induced writhing method in Swiss albino mice (25–30 g) of either sex. A 1% v/v solution of acetic acid was used to induce writhing. Test compounds were administered orally 3 h prior to acetic acid injection.

[4] = oral administration; cited from earlier work
[5] = Determination of drug solubility (distilled water and phosphate buffer pH 7.4); assay type: physicochemical; conditions: UV 222 nm
Procedure: This suspension was stirred at room temperature for 24 hours with a Rota spin test tube Roter. After that the containers (test tubes) were left overnight for saturation. Then these saturated solutions were centrifuged at 10000 rpm the help of macro centrifuge and the supernatant was filtered via Whatman filter paper. The concentration of Ibuprofen was determined spectrophotometrically at 222 nm.

With `CC(C)Cc1ccc(C(C)C(=O)O)cc1` (centres unmarked) [Ibuprofen, 2-(4-iso-butylphenyl)-propanoic acid] the Paw edema volume ([1]; 1 hr, the values are: paw edema volume) was 0.33 ± 0.013 mL, the Paw edema volume ([1]; 2 hr, the values are: paw edema volume) was 0.48 ± 0.017 mL and the Paw edema volume ([1]; 3 hr, the values are: paw edema volume) was 0.38 ± 0.013 mL. The Paw edema volume ([1]; 4 hr, the values are: paw edema volume) was 0.24 ± 0.009 mL, the Paw edema volume ([1]; 8 hr, the values are: paw edema volume) was 0.15 ± 0.01 mL and the Paw edema volume ([1]; 24 hr) was 0.03 ± 0.013^ns. The “Solubility in water (in words)” value [2] was “poorly soluble in water”, the “Percent inhibition (decrease) in writhing number versus control” value [3] was 59.61% and the “Time to reach maximal plasma concentration” value [4] was at most 2 h. It also gave a solubility at 24 h ([5]; distilled water, room temperature, read-out: Solubility in distilled water) of 10.6 µg/mL (≈ 51.2 µM) and a solubility at 24 h ([5]; phosphate buffer pH 7.4, room temperature, read-out: Solubility in phosphate buffer (pH 7.4)) of 25.2 µg/mL (≈ 122 µM).
